Data reported in patent publication US20070086949A1, “Method of bioimaging using nanocrystals of fluorescent dyes” (priority 2005, published 2007).

Experiments:
[1] = system: human cervix carcinoma cell line Hela; experiment: Confocal imaging of HeLa cells incubated with dye nanocrystal water dispersion; assay type: cell-based; conditions: confocal microscopy
Procedure: For cellular imaging, human cervix carcinoma cell line Hela was incubated with the prepared dye dispersion. The cell culture and imaging conditions are described in detail here. Human cervical carcinoma cell line (HeLa) was maintained in Dulbecco's modified eagle medium with 10% FBS according to the manufacturers instructions (American Type Culture Collection, Manassas, Va.). To study the uptake and imaging of HPPH nanocrystals, the cells were trypsinized and resuspended in the corresponding suitable media at a concentration of around 7.5×10^5/ml. 60 μl of this suspension was transferred to each 35 mm culture plate and 2 ml of the corresponding full medium was added. These plates were then placed in an incubator at 37° C. with 5% CO2 (VWR Scientific, model 2400). After 36 hours of incubation, the cells (about 60% confluency) were rinsed with PBS, and 2 ml of the corresponding fresh media was added to the plates. Finally, 50 μl of dye nanocrystals was added and mixed properly. Plates were returned to the incubator (37° C., 5% CO2) for the required incubation period. 50 μl of dye/Tween80 micelles of same dye concentration was used as control and separate culture plates were treated and incubated for the same time period as in the case of nanocrystals. […]

[2] = Size of TPB and perylene nanocrystals in water dispersion; assay type: physicochemical
Procedure: Briefly, 200 μl of dye acetone solution (10 mM concentration ) was injected into magnetically stirring water (10 ml). The average size of nanoparticle was estimated to vary from 50 nm to 200 nm depending on the concentration of original organic solution and water temperature. A homogenous dispersion of the dye nanocrystals without any noticeable aggregation or clumps was produced. Optical properties of the prepared nanocrystals were studied using UV-Visible and fluorescence spectroscopy. UV-visible absorption spectra as well as the fluorescence spectra of the nanocrystals were acquired using a Shimadzu 3600 UV spectrometer and a Jobin-Yvon Spectramax fluorimeter. Changes in absorption spectra as well as fluorescence intensity changes (such as quenching) were studied by comparing the spectra of nanocrystals in water with that of organic solution.
For this experiment, perylene was dissolved on DMSO at 1 mM, 10 mM or 100 mM. The nanocrystals were prepared as described in Example 1 by adding to water at 4° C. or 80° C.

## c1cc2cccc3c4cccc5cccc(c(c1)c23)c54 [perylene]
[1]
  intracellular staining pattern: staining the entire cytoplasm with higher dye accumulation in vescicular bodies such as lysosomes
[2]; perylene in DMSO at 1 mM, 10 mM or 100 mM, added to water at 4° C. or 80° C.
  size of the nanocrystals versus concentration of the dye: increase with increasing concentration
[2]; water at 4° C. or 80° C.
  size of the nanocrystals versus water temperature: greater at the higher water temperature
